Values after ≈ are worked out from the molar mass of the structure shown. Where two headings read alike, the source gives them in different places.
Assays:
[1] = Human liver microsome stability; format: in vitro ADME; settings: pooled human liver microsomes
Protocol: Human Liver Microsome Stability. A solution of the test compounds in phosphate buffer solution (1 μM) was incubated in pooled human liver microsomes (0.5 mg/mL) for 0, 5, 20, 30, 45 and 60 min at 37 °C in the presence and absence of NADPH regeneration system. The reaction was terminated with the addition of ice-cold acetonitrile containing system suitability standard at designated time points. […] The experiment was carried out in duplicate. Verapamil, diltiazem, phenacetin, and imipramine were used as reference standards.

[2] = tested on: Pf 3D7 3-oxadiazole quinolone resistant strain with a V259L mutation in the Qo site of cyt b; experiment: Cyt b resistant asexual stage assay, 3D7 cyt b(V259L); format: cell-based, Plasmodium falciparum; settings: for EC50: Plasmodium falciparum, 3D7, 72 h, read-out: Pf cyt b mutant strains EC50 (SD) 3D7 cyt b(V259L)
Protocol: (§1) To determine whether the cyclopropyl carboxamide series specifically targets the Qo site of cyt b, representative analogs W466 (1), W499 (2), and the focal compound here-on referred to as WJM280 (108) were evaluated against drug-resistant parasite strains with mutations in the Qo or Qi site of cyt b. […] These mutations are mapped to a model of cyt b in Fig. 3.
(§2) Cyt b Resistant and ScDHODH Asexual Stage Assays. These assays were conducted as previously described. Briefly, asexual parasite strains indicated in Table 12 were incubated with compound in a dose response format for 72 h. Parasitemia was determined using SYBR-green fluorescence measured by flow cytometry (Thermo Fisher Attune). EC50 values were determined as described for the LDH assay.

[3] = tested on: P. falciparum 3D7 parasites; experiment: P. falciparum 3D7 asexual stage LDH assay (72 h); format: cell-based, Plasmodium falciparum; settings: Plasmodium falciparum, read-out: Pf 3D7 EC50 (SD)
Summary of the method: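 Asexual P. falciparum 3D7 parasites were grown for 72 h over a 10-point, 3-fold series starting at 1 μM in 0.1% DMSO, with 100 nM chloroquine as negative growth control. After freeze-thaw, parasite LDH was read at 650 nm, and EC50 came from a variable-slope sigmoidal fit.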

[4] = eLogD (shake-flask, pH 7.4); format: physicochemical; settings: 1-octanol/phosphate buffered saline (1:1, v/v), Shake-flask method
Protocol: eLogD. The LogD (pH 7.4) assay was performed using a miniaturized shake flask method. A solution of a pre-saturated mixture of 1-octanol and phosphate buffered saline (PBS) (1:1, v/v) and the test compound (75 μM) was incubated at 25 °C with constant shaking (850 rpm) for 2 h. After incubation the organic and aqueous phases were separated, and samples of each phase transferred to plate for dilution. The organic phase was diluted to 1000-fold and the aqueous phase was diluted 20-fold. The samples were quantitated using LC-MS/MS. The experiment was carried out in duplicate. Propranolol, amitriptyline, and midazolam were used as reference standards.

[5] = tested on: Pf Dd2 strain with an I22L mutation in the Qi site cyt b; experiment: Cyt b resistant asexual stage assay, Dd2 cyt b(I22L); format: cell-based; settings: Plasmodium falciparum, DD2, 72 h, read-out: Pf cyt b mutant strains EC50 (SD) Dd2 cyt b(I22L)
Protocol: as §1, §2

[6] = Human HepG2 growth inhibition assay (Cell TitreGlo, 48 h); format: cell-based; settings: human, HepG2 cells, HepG2 cell growth inhibition over 48 h
Summary of the method: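 HepG2 cells (1000/well, DMEM + 10% FCS) exposed 48 h at 37 °C, 5% CO2 to compound from 50 μM top concentration in 1:2 dilutions, 0.5% DMSO final. Viability read by Cell Titer Glo, normalised to DMSO and 10 μM bortezomib; EC50 by four-parameter variable-slope fit.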

[7] = Aqueous solubility (kinetic in PBS, pH 7.4); format: physicochemical; settings: phosphate buffered saline
Protocol: Solubility. The solubility assay was performed using a miniaturized shake flask method. A solution of phosphate buffered saline (PBS) and the test compound (200 μM) was incubated at 25 °C with constant shaking (600 rpm) for 2 h. The samples were filtered using a multiscreen solubility filter plate. The filtrate was half diluted in acetonitrile. A five-point linearity curve was prepared in PBS:acetonitrile (1:1, v/v) at 200, 150, 75, 25 and 2.5 μM. Blank, linearity and test samples (n = 2) were transferred to a UV readable plate and the plate was scanned for absorbance. Best fit calibration curves were constructed using the calibration standards and used to determine the test sample solubility. The experiment was carried out in duplicate. Diethylstilbestrol, haloperidol, and diclofenac sodium were used as reference standards.

SMILES: O=C(NC1CC1)c1ccc(CN(Cc2ccc(Cl)cc2Cl)C2CC2)cc1 [W499 (2)]
- microsomal CLint at 1 h, 1 µM [1]: 177 µL/min/mg
- fold reduction in activity against cyt b V259L Qo site mutant compared to the Dd2 parent strain [2]: 1.5 fold
- EC50 [2]: 165 nM
- EC50 ([3]; 3D7 / DSM 265, parent 3D7 for resistant populations, LDH assay, 3 experiments (SYBR-green for DSM265)): 170 nM
- logD at 2 h [4]: 4.1
- EC50 [5]: 49 nM
- CC50 at 48 h [6]: > 40000 nM
- solubility at 2 h [7]: 7.4 µM (≈ 2.88 µg/mL)

SMILES: CCCN(Cc1ccc(C(=O)NC2CC2)cc1)Cc1ccc(C(F)(F)F)cc1 [WJM280 (108), N-Cyclopropyl-4-((propyl(4-(trifluoromethyl)benzyl)amino)methyl)benzamide]
- microsomal CLint at 1 h, 1 µM [1]: 62 µL/min/mg
- fold reduction in activity against cyt b V259L Qo site mutant compared to the Dd2 parent strain [2]: 2 fold
- EC50 [2]: 23 nM
- EC50 ([3]; 3D7, 72 h, LDH activity of P. falciparum 3D7 parasites over 72 h, means and SDs, three or more experiments): 40 nM
- logD at 2 h [4]: 5.2
- EC50 [5]: 2 nM
- CC50 at 48 h [6]: 15000 nM
- solubility at 2 h [7]: 15 µM (≈ 5.86 µg/mL)
